Source: patent publication US10294202B2, “Pyrrolidinones as herbicides” (FMC Corporation, priority 2013, dated 2019)

Experiments:
[1] = tested on: galium; experiment: Test A postemergence herbicide test; assay type: in vivo, Galium aparine; settings: for Plant response rating, Galium: 125 g ai/ha, 0 to 100 scale, 0 is no effect, 100 is complete control; for Galium plant response rating (0 to 100 scale, 0 is no effect, 100 is complete control): 500 g ai/ha
How it was run: (§1)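 Young potted plants in a loam–sand mix, one- to two-leaf stage and 2–10 cm tall, receive the test chemical postemergence and stay in a greenhouse for approximately 10 days. Injury is then judged by eye against untreated plants, scored 0 (none) to 100 (complete control).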

[2] = tested on: rice; experiment: Test B flooded paddy test; assay type: in vivo, Oryza sativa; settings: 500 g ai/ha, Flood; scale of 0 to 100 where 0 is no effect and 100 is complete control
How it was run: (§2)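 Scored visually 0–100 (0 no effect, 100 complete control) versus controls after 13 to 15 greenhouse days. Treatment: compound added to paddy water kept 3 cm above soil, on 2-leaf-stage plants.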

[3] = tested on: giant foxtail; experiment: Test A pre-/postemergence herbicide test; assay type: in vivo, Setaria faberii; settings: for Plant response rating, Foxtail, Giant: 0 to 100 scale
How it was run: (§3)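 Seeds in loam–sand blend received preemergence directed soil spray; separately, plants 2–10 cm at one- to two-leaf stage received postemergence spray, both with test chemicals in non-phytotoxic solvent with surfactant. After ~10 days in greenhouse, injury rated visually against untreated controls, 0 (no effect) to 100 (complete control).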

[4] = tested on: corn; experiment: Test A pre-/postemergence herbicide test; assay type: in vivo, Zea mays; settings: Postemergence; for Plant response rating, Corn: 125 g ai/ha, 0 to 100 scale, 0 is no effect, 100 is complete control; for Corn plant response rating (0 to 100 scale, 0 is no effect, 100 is complete control): 500 g ai/ha
How it was run: as §3

[5] = tested on: barnyardgrass; experiment: Test B flooded paddy test; assay type: in vivo, Echinochloa crus-galli; settings: 500 g ai/ha, Flood; scale of 0 to 100 where 0 is no effect and 100 is complete control
How it was run: as §2

[6] = tested on: ragweed; experiment: Test A pre-/postemergence herbicide test; assay type: in vivo, Ambrosia elatior; settings: for Plant response rating, Ragweed: 0 to 100 scale
How it was run: as §3

[7] = tested on: ducksalad; experiment: Test B flooded paddy test; assay type: in vivo, Heteranthera limosa; settings: 500 g ai/ha, Flood; scale of 0 to 100 where 0 is no effect and 100 is complete control
How it was run: as §2

[8] = tested on: barnyardgrass; experiment: Test A pre-/postemergence herbicide test; assay type: in vivo, Echinochloa crus-galli; settings: for Plant response rating, Barnyardgrass: 0 to 100 scale
How it was run: as §3

[9] = tested on: ryegrass, Italian; experiment: Test A pre-/postemergence herbicide test; assay type: in vivo, Lolium multiflorum; settings: for Plant response rating, Ryegrass, Italian: 0 to 100 scale
How it was run: as §3

[10] = tested on: wheat; experiment: Test A pre-/postemergence herbicide test; assay type: in vivo, Triticum aestivum; settings: Postemergence; for Plant response rating, Wheat: 125 g ai/ha, 0 to 100 scale, 0 is no effect, 100 is complete control; for Wheat plant response rating (0 to 100 scale, 0 is no effect, 100 is complete control): 500 g ai/ha
How it was run: as §3

[11] = tested on: kochia; experiment: Test A pre-/postemergence herbicide test; assay type: in vivo, Kochia scoparia; settings: for Plant response rating, Kochia: 0 to 100 scale
How it was run: as §3

[12] = tested on: sedge, umbrella; experiment: Test B flooded paddy test; assay type: in vivo, Cyperus difformis; settings: 500 g ai/ha, Flood; scale of 0 to 100 where 0 is no effect and 100 is complete control
How it was run: as §2

[13] = tested on: blackgrass; experiment: Test A postemergence herbicide test; assay type: in vivo, Alopecurus myosuroides; settings: for Plant response rating, Blackgrass: 125 g ai/ha, 0 to 100 scale, 0 is no effect, 100 is complete control; for Blackgrass plant response rating (0 to 100 scale, 0 is no effect, 100 is complete control): 500 g ai/ha
How it was run: as §1

[14] = tested on: pigweed; experiment: Test A pre-/postemergence herbicide test; assay type: in vivo, Amaranthus retroflexus; settings: for Plant response rating, Pigweed: 0 to 100 scale
How it was run: as §3

[15] = 125 g ai/ha, visual rating, 0 no effect, 100 complete control, approximately 10 days, preemergence
[16] = Postemergence, 125 g ai/ha, 0 is no effect, 100 is complete control
[17] = preemergence, 500 g ai/ha, 0 is no effect and 100 is complete control

Compound | Plant response rating, Galium [1] | Galium plant response rating (0 to 100 scale, 0 is no effect, 100 is complete control) [1] | Plant response rating, Rice [2] | Plant response rating, Foxtail, Giant [3, 15] | Plant response rating, Foxtail, Giant [3, 16] | Foxtail, Giant plant response rating (0 to 100 scale, 0 is no effect, 100 is complete control) ([3]; Postemergence, 500 g ai/ha) | Plant response rating, Foxtail, Giant [3, 17] | Plant response rating, Corn [4] | Corn plant response rating (0 to 100 scale, 0 is no effect, 100 is complete control) [4] | Plant response rating, Barnyardgrass [5] | Plant response rating, Ragweed [6, 15] | Plant response rating, Ragweed [6, 16] | Ragweed plant response rating (0 to 100 scale, 0 is no effect, 100 is complete control) ([6]; Postemergence, 500 g ai/ha) | Plant response rating, Ducksalad [7] | Plant response rating, Barnyardgrass [8, 15] | Plant response rating, Barnyardgrass [8, 16] | Barnyardgrass plant response rating (0 to 100 scale, 0 is no effect, 100 is complete control) ([8]; Postemergence, 500 g ai/ha) | Plant response rating, Barnyardgrass [8, 17] | Plant response rating, Ryegrass, Italian [9, 15] | Plant response rating, Ryegrass, Italian [9, 16] | also measured
O=C1NCC(c2cccc(OC(F)F)c2)C1C(=O)Nc1ccccc1C(F)(F)F (centres unmarked) [Compound 222] | 30 | 60 | 0 | 90 | 80 | 90 | 90 | 20 | 60 | 60 | 0 | 0 | 40 | 100 | 70 | 70 | 90 | 90 | 20 | 20 | Plant response rating, Ragweed [6, 17]: 20; Ryegrass, Italian plant response rating (0 to 100 scale, 0 is no effect, 100 is complete control) ([9]; Postemergence, 500 g ai/ha): 30; Plant response rating, Ryegrass, Italian [9, 17]: 50; Plant response rating, Wheat [10]: 20; Wheat plant response rating (0 to 100 scale, 0 is no effect, 100 is complete control) [10]: 30; Plant response rating, Kochia [11, 15]: 0; Plant response rating, Kochia [11, 16]: 0; Kochia plant response rating (0 to 100 scale, 0 is no effect, 100 is complete control) ([11]; Postemergence, 500 g ai/ha): 40; Plant response rating, Kochia [11, 17]: 50; Plant response rating, Sedge, Umbrella [12]: 0; Plant response rating, Blackgrass [13]: 30; Blackgrass plant response rating (0 to 100 scale, 0 is no effect, 100 is complete control) [13]: 60; Plant response rating, Pigweed [14, 15]: 0; Plant response rating, Pigweed [14, 16]: 0; Pigweed plant response rating (0 to 100 scale, 0 is no effect, 100 is complete control) ([14]; Postemergence, 500 g ai/ha): 20; Plant response rating, Pigweed [14, 17]: 30
O=C1NCC(c2ccc(OC(F)F)cc2)C1C(=O)Nc1ccccc1Br (centres unmarked) [Compound 225] | 20 | 30 | 0 | 80 | 40 | 70 | 90 | 0 | 20 | 0 | 0 | 0 | 0 | 90 | 20 | 30 | 60 | 30 | 0 | 0 | Plant response rating, Ragweed [6, 17]: 0; Ryegrass, Italian plant response rating (0 to 100 scale, 0 is no effect, 100 is complete control) ([9]; Postemergence, 500 g ai/ha): 0; Plant response rating, Ryegrass, Italian [9, 17]: 40; Plant response rating, Wheat [10]: 0; Wheat plant response rating (0 to 100 scale, 0 is no effect, 100 is complete control) [10]: 20; Plant response rating, Kochia [11, 15]: 0; Plant response rating, Kochia [11, 16]: 0; Kochia plant response rating (0 to 100 scale, 0 is no effect, 100 is complete control) ([11]; Postemergence, 500 g ai/ha): 0; Plant response rating, Kochia [11, 17]: 30; Plant response rating, Sedge, Umbrella [12]: 0; Plant response rating, Blackgrass [13]: 0; Blackgrass plant response rating (0 to 100 scale, 0 is no effect, 100 is complete control) [13]: 30; Plant response rating, Pigweed [14, 15]: 0; Plant response rating, Pigweed [14, 16]: 0; Pigweed plant response rating (0 to 100 scale, 0 is no effect, 100 is complete control) ([14]; Postemergence, 500 g ai/ha): 0; Plant response rating, Pigweed [14, 17]: 0
O=C1NCC(c2ccc(OC(F)F)cc2)C1C(=O)Nc1ccccc1Cl (centres unmarked) [Compound 226] | 20 | 20 | 0 | 70 | 70 | 80 | 90 | 0 | 0 | 0 | 0 | 0 | 0 | 100 | 50 | 30 | 80 | 90 | 0 | 0 | Plant response rating, Ragweed [6, 17]: 0; Ryegrass, Italian plant response rating (0 to 100 scale, 0 is no effect, 100 is complete control) ([9]; Postemergence, 500 g ai/ha): 20; Plant response rating, Ryegrass, Italian [9, 17]: 20; Plant response rating, Wheat [10]: 0; Wheat plant response rating (0 to 100 scale, 0 is no effect, 100 is complete control) [10]: 0; Plant response rating, Kochia [11, 15]: 0; Plant response rating, Kochia [11, 16]: 30; Kochia plant response rating (0 to 100 scale, 0 is no effect, 100 is complete control) ([11]; Postemergence, 500 g ai/ha): 50; Plant response rating, Kochia [11, 17]: 30; Plant response rating, Sedge, Umbrella [12]: 0; Plant response rating, Blackgrass [13]: 20; Blackgrass plant response rating (0 to 100 scale, 0 is no effect, 100 is complete control) [13]: 30; Plant response rating, Pigweed [14, 15]: 0; Plant response rating, Pigweed [14, 16]: 0; Pigweed plant response rating (0 to 100 scale, 0 is no effect, 100 is complete control) ([14]; Postemergence, 500 g ai/ha): 0; Plant response rating, Pigweed [14, 17]: 30
O=C1NCC(c2cccc(OC(F)F)c2)C1C(=O)Nc1ccccc1Cl (centres unmarked) [Compound 229] | 60 | 70 | 0 | 90 | 80 | 90 | 90 | 0 | 0 | 50 | 0 | 20 | 60 | 100 | 70 | 70 | 80 | 90 | 10 | 30 | Ryegrass, Italian plant response rating (0 to 100 scale, 0 is no effect, 100 is complete control) ([9]; Postemergence, 500 g ai/ha): 40; Plant response rating, Ryegrass, Italian [9, 17]: 20; Plant response rating, Wheat [10]: 0; Wheat plant response rating (0 to 100 scale, 0 is no effect, 100 is complete control) [10]: 0; Plant response rating, Kochia [11, 15]: 0; Plant response rating, Kochia [11, 16]: 10; Kochia plant response rating (0 to 100 scale, 0 is no effect, 100 is complete control) ([11]; Postemergence, 500 g ai/ha): 60; Plant response rating, Kochia [11, 17]: 70; Plant response rating, Sedge, Umbrella [12]: 0; Plant response rating, Blackgrass [13]: 40; Blackgrass plant response rating (0 to 100 scale, 0 is no effect, 100 is complete control) [13]: 70; Plant response rating, Pigweed [14, 15]: 0; Plant response rating, Pigweed [14, 16]: 0; Pigweed plant response rating (0 to 100 scale, 0 is no effect, 100 is complete control) ([14]; Postemergence, 500 g ai/ha): 0; Plant response rating, Pigweed [14, 17]: 0
Cc1ccccc1NC(=O)C1C(=O)NCC1c1cccc(OC(F)F)c1 (centres unmarked) [Compound 230] | 20 | 50 | 0 | 90 | 70 | 90 | 90 | 20 | 40 | 60 | 0 | 0 | 30 | 75 | 30 | 60 | 90 | 90 | 0 | 0 | Plant response rating, Ragweed [6, 17]: 20; Ryegrass, Italian plant response rating (0 to 100 scale, 0 is no effect, 100 is complete control) ([9]; Postemergence, 500 g ai/ha): 20; Plant response rating, Ryegrass, Italian [9, 17]: 30; Plant response rating, Wheat [10]: 20; Wheat plant response rating (0 to 100 scale, 0 is no effect, 100 is complete control) [10]: 20; Plant response rating, Kochia [11, 15]: 0; Plant response rating, Kochia [11, 16]: 0; Kochia plant response rating (0 to 100 scale, 0 is no effect, 100 is complete control) ([11]; Postemergence, 500 g ai/ha): 40; Plant response rating, Kochia [11, 17]: 30; Plant response rating, Sedge, Umbrella [12]: 0; Plant response rating, Blackgrass [13]: 20; Blackgrass plant response rating (0 to 100 scale, 0 is no effect, 100 is complete control) [13]: 50; Plant response rating, Pigweed [14, 15]: 0; Plant response rating, Pigweed [14, 16]: 0; Pigweed plant response rating (0 to 100 scale, 0 is no effect, 100 is complete control) ([14]; Postemergence, 500 g ai/ha): 0; Plant response rating, Pigweed [14, 17]: 20
